Data as given in patent US6245736A, “Use of peptidic bradykinin antagonists for the treatment and prevention of Alzheimer's disease” (Aventis Pharma Deutschland GmbH, priority 1996, dated 2001).
Where no end group is shown, it is not given here.

Legend:
Format in all cases: cell-based
[1] = system: bovine aortic endothelial cells; assay: cGMP production stimulated by the Alzheimer protein β/A4 in endothelial cell cultures (BAECs), radioimmunoassay
Excerpt: (§1) Action of the compounds of the formula (I) on cGMP production stimulated by the Alzheimer protein β/A4 in endothelial cell cultures
(§2) Bovine aortic endothelial cell cultures (BAECs=bovine aortic endothelial cells), […] coronary rat endothelial cell cultures (RMCECs=rat microvascular coronary endothelial cells) and human umbilical vein endothelial cell cultures (HUVECs=human umbilical vein endothelial cells)
(§3) Determination of the effect of bradykinin antagonists of the formula (I) on the production of cGMP stimulated by administration of 0.1 and 1 μmol/l of the Alzheimer protein β/A4 in endothelial cell cultures of various species and organs.
(§4) In endothelial cells, bradykinin leads to an increase in the production of cGMP, which is determined by means of a radioimmunoassay. Increase in the formation of cGMP by bradykinin is an indicator of a release of NO (nitrogen monoxide) from endothelial cells.
(§5) Stimulation of cGMP production by βA(1-40) and inhibitory effect of the bradykinin antagonist HOE 140 (10^-7 mol/l) in 3 different types of endothelial cells: […]

[2] = system: rat microvascular coronary endothelial cells; assay: cGMP production stimulated by the Alzheimer protein β/A4 in endothelial cell cultures (RMCECs), radioimmunoassay
Excerpt: as §1, §2, §3, §4, §5

[3] = system: human umbilical vein endothelial cells; assay: cGMP production stimulated by the Alzheimer protein β/A4 in endothelial cell cultures (HUVECs), radioimmunoassay
Excerpt: as §1, §2, §3, §4, §5

[4] = simultaneous incubation with HOE 140 0.1 μmol/l
[5] = stimulated with BK 10^-8 mol/l + HOE 140 (10^-7 mol/l)
[6] = stimulated with βA (1-40) 10^-6 mol/l + HOE 140 (10^-7 mol/l)
[7] = stimulated with βA (1-40) 10^-7 mol/l + HOE 140 (10^-7 mol/l)

With `N=C(N)NCCC[C@@H](N)C(=O)N[C@@H](CCCNC(=N)N)C(=O)N1CCC[C@H]1C(=O)N1C[C@H](O)C[C@H]1C(=O)NCC(=O)N[C@@H](Cc1cccs1)C(=O)N[C@@H](CO)C(=O)N1Cc2ccccc2C[C@@H]1C(=O)N1[C@H](C(=O)N[C@@H](CCCNC(=N)N)C(=O)O)C[C@@H]2CCCC[C@@H]21` [HOE 140, H-D-Arg-Arg-Pro-Hyp-Gly-Thi-Ser-D-Tic-Oic-Arg-OH] as the compound, how does the “effect on the stimulation of the production of cGMP induced by the β/A4 protein” value (“effect on the stimulation” below) [1, 4] read?
The value was “prevents the stimulation of the production of cGMP”.

What about the cGMP production [1, 5] of the same compound?
The cGMP production was 2.2 ± 0.2 pmol/mg of protein.

What about the cGMP production [1, 6] of the same compound?
Its cGMP production is 2.2 ± 0.2 pmol/mg of protein.

What about the cGMP production [1, 7] of the same compound?
The cGMP production was 2.2 ± 0.28 pmol/mg of protein.

What about the “effect on the stimulation” value [2, 4] of the same compound?
Its value is “prevents the stimulation of the production of cGMP”.

What about the cGMP production [2, 5] of the same compound?
Its cGMP production is 0.22 ± 0.02 pmol/mg of protein.

And the cGMP production [2, 6]?
The cGMP production was 0.32 ± 0.05 pmol/mg of protein.

What about the cGMP production [2, 7] of the same compound?
Its cGMP production is 0.34 ± 0.02 pmol/mg of protein.

What about the “effect on the stimulation” value [3, 4] of the same compound?
Its value is “prevents the stimulation of the production of cGMP”.

And the cGMP production [3, 5]?
Its cGMP production is 3.45 ± 0.45 pmol/mg of protein.

And the cGMP production [3, 6]?
Its cGMP production is 5.3 pmol/mg of protein.

What about the cGMP production [3, 7] of the same compound?
Its cGMP production is 4.0 pmol/mg of protein.

With RPPGFSPFR [BK, bradykinin] as the compound, how does the cGMP production ([1]; BK 10^-8 mol/l alone) read?
The cGMP production was 8.8 ± 0.34 pmol/mg of protein.

And the cGMP production ([2]; BK 10^-8 mol/l alone)?
The cGMP production was 1.13 ± 0.2 pmol/mg of protein.

What about the cGMP production ([3]; BK 10^-8 mol/l alone) of the same compound?
The cGMP production was 11.46 ± 2 pmol/mg of protein.

For “βA (1-40): Alzheimer protein amyloid (β/A4), used to stimulate cGMP production [reference compound]”, which cGMP production ([1]; βA (1-40) 10^-6 mol/l alone) is on record?
Its cGMP production is 4.6 ± 0.13 pmol/mg of protein.

What about the cGMP production ([1]; βA (1-40) 10^-7 mol/l alone) of the same compound?
The cGMP production was 5.9 ± 0.23 pmol/mg of protein.

What about the cGMP production ([2]; βA (1-40) 10^-6 mol/l alone) of the same compound?
The cGMP production was 0.74 ± 0.09 pmol/mg of protein.

And the cGMP production ([2]; βA (1-40) 10^-7 mol/l alone)?
The cGMP production was 0.59 ± 0.07 pmol/mg of protein.

And the cGMP production ([3]; βA (1-40) 10^-6 mol/l alone)?
Its cGMP production is 15.3 ± 1.9 pmol/mg of protein.

What about the cGMP production ([3]; βA (1-40) 10^-7 mol/l alone) of the same compound?
Its cGMP production is 14.07 ± 1.6 pmol/mg of protein.
